Data reported in ChEMBL document CHEMBL1201862, “PubChem BioAssay data set” (2004).
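Assay format: 96-well plates, 48-hour exposure. At the GI50, growth is halved.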 Activity calls are given as the source filed them. Rule as the data show it: active = GI50 up to about 1.1 µM and inactive = higher.

Legend:
Test in all cases: NCI anticancer screen, dose series, 48 h
786-0 = system: 786-0
A549 = system: A549
EKVX = system: EKVX
HCT-116 = system: HCT-116
HT-29 = system: HT-29
IGROV-1 = system: IGROV-1
K562 = system: K562
Malme-3M = system: Malme-3M
OVCAR-4 = system: OVCAR-4
OVCAR-8 = system: OVCAR-8
SK-MEL-2 = system: SK-MEL-2
T47D = system: T47D
TK-10 = system: TK-10
U-251 = system: U-251
UO-31 = system: UO-31
A498 = system: A498
MDA-N = system: MDA-N
SK-OV-3 = system: SK-OV-3
HCC 2998 = system: HCC 2998
SR = system: SR

SMILES | GI50 (786-0) | GI50 (A549) | GI50 (EKVX) | GI50 (HCT-116) | GI50 (HT-29) | GI50 (IGROV-1) | GI50 (K562) | GI50 (Malme-3M) | GI50 (OVCAR-4) | GI50 (OVCAR-8) | GI50 (SK-MEL-2) | GI50 (T47D) | GI50 (TK-10) | GI50 (U-251) | GI50 (UO-31) | GI50 (A498) | GI50 (MDA-N) | GI50 (SK-OV-3) | GI50 (HCC 2998) | GI50 (SR)
CC(C)=NN/C(=N\c1ccc(Cl)cc1)NS(=O)(=O)c1cc2ccccc2s1 | > 100 µM (inactive) | 44 µM (inactive) | 12 µM (inactive) | 40.4 µM (inactive) | 63.1 µM (inactive) | 34.2 µM (inactive) | 23 µM (inactive) | 89.9 µM (inactive) | 46.9 µM (inactive) | > 100 µM (inactive) | 65.8 µM (inactive) | 21.5 µM (inactive) | 87.9 µM (inactive) | > 100 µM (inactive) | 30.5 µM (inactive) |  |  |  |  | 
COC(=O)C1C2C=CC(C2)N1S(=O)(=O)c1ccccc1 (stereo not drawn) | > 100 µM (inactive) | > 100 µM (inactive) |  | > 100 µM (inactive) | > 100 µM (inactive) |  | > 100 µM (inactive) | > 100 µM (inactive) | > 100 µM (inactive) | > 100 µM (inactive) | > 100 µM (inactive) | > 100 µM (inactive) | > 100 µM (inactive) | > 100 µM (inactive) | > 100 µM (inactive) | > 100 µM (inactive) | > 100 µM (inactive) | > 100 µM (inactive) |  | 
COc1ccc(/C=N/Nc2nnc3c(n2)c2ccccc2c2nn(-c4ccccc4Cl)nc23)cc1 | > 100 µM (inactive) | > 100 µM (inactive) | > 100 µM (inactive) | > 100 µM (inactive) | > 100 µM (inactive) | > 100 µM (inactive) | > 100 µM (inactive) | > 100 µM (inactive) | > 100 µM (inactive) | > 100 µM (inactive) | > 100 µM (inactive) | > 100 µM (inactive) | > 100 µM (inactive) | > 100 µM (inactive) | > 100 µM (inactive) | > 100 µM (inactive) | > 100 µM (inactive) | > 100 µM (inactive) |  | 
COc1ccc(/C=C2/S/C(=N\c3ccccc3)N(NC(=O)Cc3ccccc3)C2=O)c(OC)c1 | > 100 µM (inactive) | > 100 µM (inactive) | > 100 µM (inactive) | > 100 µM (inactive) | > 100 µM (inactive) | > 100 µM (inactive) | 89.9 µM (inactive) |  | > 100 µM (inactive) | > 100 µM (inactive) | > 100 µM (inactive) | 43.9 µM (inactive) | > 100 µM (inactive) | > 100 µM (inactive) | 98.9 µM (inactive) | > 100 µM (inactive) | > 100 µM (inactive) | > 100 µM (inactive) | 82.6 µM (inactive) | 
CC(=O)Nc1ccc2cc(C#N)c(=O)[nH]c2n1 | > 100 µM (inactive) | > 100 µM (inactive) | > 100 µM (inactive) | > 100 µM (inactive) |  | > 100 µM (inactive) | > 100 µM (inactive) | > 100 µM (inactive) | > 100 µM (inactive) | > 100 µM (inactive) | > 100 µM (inactive) | > 100 µM (inactive) | > 100 µM (inactive) | 81.3 µM (inactive) | > 100 µM (inactive) | > 100 µM (inactive) | > 100 µM (inactive) | > 100 µM (inactive) | > 100 µM (inactive) | 
CCCC/C=C/C/C=C/CCCCCCCCC(=O)OCC1CCCN2CCCCC12 (stereo not drawn) | > 100 µM (inactive) | > 100 µM (inactive) | 54.6 µM (inactive) | > 100 µM (inactive) | > 100 µM (inactive) |  | > 100 µM (inactive) | 87.5 µM (inactive) | 79.8 µM (inactive) | > 100 µM (inactive) | > 100 µM (inactive) | 12.8 µM (inactive) | > 100 µM (inactive) | > 100 µM (inactive) | 59.4 µM (inactive) | > 100 µM (inactive) | > 100 µM (inactive) | > 100 µM (inactive) | > 100 µM (inactive) | 
Nc1ncnc2c1ncn2C(=O)NC12CC3CC(CC(C3)C1)C2 | > 100 µM (inactive) | > 100 µM (inactive) | > 100 µM (inactive) | > 100 µM (inactive) | > 100 µM (inactive) |  | > 100 µM (inactive) | > 100 µM (inactive) | > 100 µM (inactive) | > 100 µM (inactive) | > 100 µM (inactive) | 4.97 µM (inactive) | > 100 µM (inactive) | > 100 µM (inactive) | > 100 µM (inactive) | > 100 µM (inactive) | > 100 µM (inactive) | > 100 µM (inactive) | > 100 µM (inactive) | 
O=C(O)C1Cc2ccccc2OC1=O (stereo not drawn) | > 100 µM (inactive) | > 100 µM (inactive) | > 100 µM (inactive) | > 100 µM (inactive) | > 100 µM (inactive) | > 100 µM (inactive) | > 100 µM (inactive) | > 100 µM (inactive) |  | > 100 µM (inactive) | > 100 µM (inactive) | > 100 µM (inactive) | > 100 µM (inactive) | > 100 µM (inactive) | > 100 µM (inactive) |  |  | > 100 µM (inactive) | > 100 µM (inactive) | > 100 µM (inactive)
O=C1Oc2ccccc2C(=O)/C1=C/N1C(=O)CNC1=S | > 100 µM (inactive) | > 100 µM (inactive) | > 100 µM (inactive) | > 100 µM (inactive) | > 100 µM (inactive) | > 100 µM (inactive) | > 100 µM (inactive) |  | > 100 µM (inactive) | > 100 µM (inactive) | > 100 µM (inactive) | > 100 µM (inactive) | > 100 µM (inactive) | > 100 µM (inactive) | 23 µM (inactive) |  | > 100 µM (inactive) | 95.1 µM (inactive) | > 100 µM (inactive) | 
CC(C)COC(c1ccc2c(c1)OCO2)C(C)Br (stereo not drawn) | 23.4 µM (inactive) | 29.1 µM (inactive) | 26.2 µM (inactive) | 17.2 µM (inactive) | 18.9 µM (inactive) | 32.8 µM (inactive) | 46.7 µM (inactive) | 17.1 µM (inactive) | 34.1 µM (inactive) | 30.2 µM (inactive) | 21.8 µM (inactive) |  | 30.9 µM (inactive) | 26.5 µM (inactive) | 22.5 µM (inactive) | 33.4 µM (inactive) | 21.6 µM (inactive) | 24.1 µM (inactive) | 18.4 µM (inactive) | 21.2 µM (inactive)
Cc1ccc(-c2nc3n(c2/C=N\N=C(N)N)CCS3)cc1 | 15.8 µM (inactive) | 15.9 µM (inactive) | 16 µM (inactive) | 14.8 µM (inactive) | 14 µM (inactive) | 15 µM (inactive) | 19.8 µM (inactive) | 17.3 µM (inactive) | 16.6 µM (inactive) | 15.6 µM (inactive) | 12.9 µM (inactive) | 13.2 µM (inactive) | 19 µM (inactive) | 14.9 µM (inactive) | 16.7 µM (inactive) | 16.8 µM (inactive) |  | 15.3 µM (inactive) | 11.6 µM (inactive) | 59 µM (inactive)
Cc1cc2c(c(S(=O)(=O)c3ccc(Cl)cc3[N+](=O)[O-])c1)NCCC2 | > 100 µM (inactive) | 38.5 µM (inactive) | > 100 µM (inactive) |  | 66.1 µM (inactive) | > 100 µM (inactive) |  | > 100 µM (inactive) | 15.3 µM (inactive) | > 100 µM (inactive) | > 100 µM (inactive) | 1.84 µM (inactive) | > 100 µM (inactive) | > 100 µM (inactive) | > 100 µM (inactive) | > 100 µM (inactive) |  | > 100 µM (inactive) | > 100 µM (inactive) | 12.2 µM (inactive)
O=C1/C(=N\NC(=S)Nc2ccc(Cl)cc2)c2cc([N+](=O)[O-])ccc2N1CN1CCOCC1 | 4.41 µM (inactive) | 8.22 µM (inactive) |  | 4.12 µM (inactive) |  | 4.19 µM (inactive) |  | 6.17 µM (inactive) | 10 µM (inactive) | 5.6 µM (inactive) | 13.2 µM (inactive) | 4.37 µM (inactive) | 12.2 µM (inactive) | 7.18 µM (inactive) | 3.78 µM (inactive) |  |  | 12.6 µM (inactive) |  | 1.99 µM (inactive)
CC(=O)OCC(OC(C)=O)C1C[C@H]2O[C@@H]3[C@H](C[C@H]2O1)O[C@@]1(C[C@@H]3C)C[C@H](C)[C@@H]2O[C@]3(C[C@@H]2O1)C[C@H]1O[C@H]2[C@H](C)[C@H]4OC(=O)CC5CC[C@H]6OC7[C@H]8O[C@]9(CC[C@H]%10CC(O)(CO)[C@H](CC[C@H]%11C[C@@H](C)C(O)(CO)C(C[C@@H]4O[C@H]2C[C@H]1O3)O%11)O%10)CC8O[C@@H]7[C@@H](O9)[C@H]6O5 (stereo partly drawn) | 0.00532 µM (active) | 0.00643 µM (active) | 0.0234 µM (active) | 0.00438 µM (active) |  | 0.00436 µM (active) | 0.00116 µM (active) | 0.00297 µM (active) |  | 0.0121 µM (active) | 0.116 µM (active) |  |  | 0.00618 µM (active) | 0.0226 µM (active) | > 0.214 µM (active) | 0.00083 µM (active) | 0.0284 µM (active) | 0.00532 µM (active) | 0.000581 µM (active)
O=S1(=O)OC(c2ccc(O)cc2)(c2ccc(O)cc2)c2ccccc21 [PHENOLSULFONPHTHALEIN] | > 100 µM (inactive) | > 100 µM (inactive) | > 100 µM (inactive) | > 100 µM (inactive) | > 100 µM (inactive) | > 100 µM (inactive) | > 100 µM (inactive) | > 100 µM (inactive) | > 100 µM (inactive) | > 100 µM (inactive) | > 100 µM (inactive) | > 100 µM (inactive) | > 100 µM (inactive) | > 100 µM (inactive) | > 100 µM (inactive) | > 100 µM (inactive) |  | > 100 µM (inactive) | > 100 µM (inactive) | 
